Reference: ChEMBL document CHEMBL1136924 (J Med Chem, 2009)

Test: Ratio of drug level in brain to plasma in rat at 5 mg/kg
Type: ADME, organism-based
Set-up: dose 5 mg/kg

With `O=C(O)CN1CCN(c2nc3cccc(F)c3n3cccc23)CC1` the Kp was 0.1.
